{
  "source": "patent US8664201B2",
  "about": "(priority 2008, dated 2014)",
  "key": {"[1]": {"assay": "Estimated comparable human intravenous dosages"}, "advanced cancer": {"test_system": "advanced cancer", "assay": "Treatment of patients with advanced cancer with IPM.(LYS)2", "type": "in vivo, human", "method": "One patient (cohort) was treated per dose escalation every 21-28 days to allow for toxicity presentation. Doses were escalated by 40% if there were no serious toxic events."}, "MX-1 Human Breast Tumor": {"test_system": "MX-1 Human Breast Tumor", "settings": "mouse, in vivo, ip"}, "Lewis lung murine tumor": {"test_system": "Lewis lung murine tumor", "settings": "mouse, in vivo, ip"}, "[2]": {"assay": "Acute toxicity, three daily IV bolus injections in mice (IPM lysine salt, IPM parent control)", "type": "in vivo", "settings": "for intravenous LD10 / intravenous LD50: IV daily × 3 days", "method": "This example describes the evaluation of the acute toxicity of isophosphoramide mustard lysine salt, following three days of daily intravenous (bolus) injection in mice. This study consisted of two phases.\nThe second main study phase consisted of eight treatment groups (five mice/sex/group) that received the test article as a single daily dose for three consecutive days at respective dose levels of 50, 75, 100, 200, 300, 400, 500, and 600 mg/kg. An additional group (5 mice/sex) served as a parent compound control and received the isophosphoramide mustard parent compound in the same manner, at a dose level of 150 mg/kg. The vehicle was 0.9% sodium chloride for injection, USP and all doses were at a constant volume of 15 mL/kg.\nObservations for mortality, morbidity, and the availability of food and water were conducted twice daily for all animals. Observations for clinical signs were conducted daily during the study (approximately one and four hours postdose on Days 1, 2, and 3, and once daily on non-dosing days). Body weights for all surviving animals were measured and recorded the second day after receipt, prior to randomization, and on Days-1 and 7. Body weights also were measured on all surviving main study phase animals on Day 14. Macroscopic evaluations were performed on each main study animal at necropsy (Day 15).\nEight main study treatment groups received the test article as a single daily dose for three consecutive days via intravenous (bolus) injection at respective dose levels of 50, 75, 100, 200, 300, 400, 500, and 600 mg/kg. An additional group (five mice/sex) served as a parent compound control and received the Isophosphoramide Mustard Parent Compound in the same manner at a dose level of 150 mg/kg. All doses were at a volume of 15 mL/kg and based on the most recent body weight."}},
  "note": "“And” between values parts separate entries of the source, which are not always exact repeats. Identical values can stand only once. Counter-ions that a name gives are not always drawn. Marks after values point to notes of the source that are not given here.",
  "data": [
    {"smiles": "O=P(O)(NCCCl)NCCCl", "note": "[IPM lysine salt, isophosphoramide mustard lysine salt]", "values": [
      {"measurement": "estimated MTD in humans (1/10 the LD10 in mice)", "setting": "[1]", "value": 40, "unit": "mg/m^2/d"},
      {"measurement": "Comparable Human IV Dosage", "setting": "[1]; estimated from mouse sub-acute IV LD10", "value": 40, "unit": "mg/m^2/d"},
      {"measurement": "serious toxicity in patients", "setting": "advanced cancer; 30, 42, 59 and 83 mg/m^2 daily IV for 3 days, one patient each", "value": "without serious toxicity"},
      {"measurement": "disease response", "setting": "advanced cancer; one patient with rectal cancer, 83 mg/m^2 daily IV for 3 days", "value": "stabilization of their disease"},
      {"measurement": "MTD Dosage", "setting": "MX-1 Human Breast Tumor", "value": 93.2, "unit": "mg/kg/dose"},
      {"measurement": "T-C", "setting": "MX-1 Human Breast Tumor", "value": "10.2* days"},
      {"measurement": "superiority to IPM at comparable dosing", "setting": "MX-1 Human Breast Tumor", "value": 8, "unit": "fold"},
      {"measurement": "MTD Dosage", "setting": "Lewis lung murine tumor", "value": 93.2, "unit": "mg/kg/dose"},
      {"measurement": "T-C", "setting": "Lewis lung murine tumor", "value": "8.3* days"},
      {"measurement": "increase of the MTD (mg/kg/dose) of the salt over parent drug", "setting": "Lewis lung murine tumor", "value": 2, "unit": "fold"},
      {"measurement": "Cumulative Mortality, female", "setting": "[2]; 50 mg/kg IV daily × 3", "value": "0/5"},
      {"measurement": "Cumulative Mortality, male", "setting": "[2]; 50 mg/kg IV daily × 3", "value": "0/5"},
      {"measurement": "Cumulative Mortality, total", "setting": "[2]; 50 mg/kg IV daily × 3", "value": "No mice died"},
      {"measurement": "Cumulative Mortality, total", "setting": "[2]; 50 mg/kg IV daily × 3, listed as IPM Lysine Salt", "value": "No animals died and 0/10"},
      {"measurement": "Cumulative Mortality, female", "setting": "[2]; 75 mg/kg IV daily × 3", "value": "0/5"},
      {"measurement": "Cumulative Mortality, male", "setting": "[2]; 75 mg/kg IV daily × 3", "value": "0/5"},
      {"measurement": "Cumulative Mortality, total", "setting": "[2]; 75 mg/kg IV daily × 3", "value": "No mice died"},
      {"measurement": "Cumulative Mortality, total", "setting": "[2]; 75 mg/kg IV daily × 3, listed as IPM Lysine Salt", "value": "No animals died and 0/10"},
      {"measurement": "Cumulative Mortality, female", "setting": "[2]; 100 mg/kg IV daily × 3", "value": "0/5"},
      {"measurement": "Cumulative Mortality, male", "setting": "[2]; 100 mg/kg IV daily × 3", "value": "1/5"},
      {"measurement": "Cumulative Mortality, total", "setting": "[2]; 100 mg/kg IV daily × 3", "value": "1 of 10"},
      {"measurement": "Cumulative Mortality, total", "setting": "[2]; 100 mg/kg IV daily × 3, listed as IPM Lysine Salt", "value": "1 of 10 and 1/10"},
      {"measurement": "Cumulative Mortality, female", "setting": "[2]; 200 mg/kg IV daily × 3", "value": "3/5"},
      {"measurement": "Cumulative Mortality, male", "setting": "[2]; 200 mg/kg IV daily × 3", "value": "0/5"},
      {"measurement": "Cumulative Mortality, total", "setting": "[2]; 200 mg/kg IV daily × 3", "value": "No mice died"},
      {"measurement": "Cumulative Mortality, total", "setting": "[2]; 200 mg/kg IV daily × 3, listed as IPM Lysine Salt", "value": "3 of 10 and 3/10"},
      {"measurement": "Cumulative Mortality, female", "setting": "[2]; 300 mg/kg IV daily × 3", "value": "5/5"},
      {"measurement": "Cumulative Mortality, male", "setting": "[2]; 300 mg/kg IV daily × 3", "value": "4/5"},
      {"measurement": "Cumulative Mortality, total", "setting": "[2]; 300 mg/kg IV daily × 3", "value": "9 out of 10"},
      {"measurement": "Cumulative Mortality, total", "setting": "[2]; 300 mg/kg IV daily × 3, listed as IPM Lysine Salt", "value": "9 of 10 and 9/10"},
      {"measurement": "Cumulative Mortality, female", "setting": "[2]; 400 mg/kg IV daily × 3", "value": "5/5"},
      {"measurement": "Cumulative Mortality, male", "setting": "[2]; 400 mg/kg IV daily × 3", "value": "5/5"},
      {"measurement": "Cumulative Mortality, total", "setting": "[2]; 400 mg/kg IV daily × 3", "value": "all mice died"},
      {"measurement": "Cumulative Mortality, total", "setting": "[2]; 400 mg/kg IV daily × 3, listed as IPM Lysine Salt", "value": "all animals died and 10/10"},
      {"measurement": "Cumulative Mortality, female", "setting": "[2]; 500 mg/kg IV daily × 3", "value": "5/5"},
      {"measurement": "Cumulative Mortality, male", "setting": "[2]; 500 mg/kg IV daily × 3", "value": "5/5"},
      {"measurement": "Cumulative Mortality, total", "setting": "[2]; 500 mg/kg IV daily × 3", "value": "all mice died"},
      {"measurement": "Cumulative Mortality, total", "setting": "[2]; 500 mg/kg IV daily × 3, listed as IPM Lysine Salt", "value": "all animals died and 10/10"},
      {"measurement": "Cumulative Mortality, female", "setting": "[2]; 600 mg/kg IV daily × 3", "value": "5/5"},
      {"measurement": "Cumulative Mortality, male", "setting": "[2]; 600 mg/kg IV daily × 3", "value": "5/5"},
      {"measurement": "Cumulative Mortality, total", "setting": "[2]; 600 mg/kg IV daily × 3", "value": "all mice died"},
      {"measurement": "Cumulative Mortality, total", "setting": "[2]; 600 mg/kg IV daily × 3, listed as IPM Lysine Salt", "value": "all animals died and 10/10"},
      {"measurement": "Sub-acute IV LD10", "setting": "[2]; Mouse", "value": 133, "unit": "mg/kg/day"},
      {"measurement": "intravenous LD10", "setting": "[2]; female mice", "value": 179, "unit": "mg/kg"},
      {"measurement": "intravenous LD50", "setting": "[2]; female mice", "value": 197, "unit": "mg/kg"},
      {"measurement": "macroscopic findings at necropsy", "setting": "[2]; main study, Day 15", "value": "No treatment-related macroscopic findings"},
      {"measurement": "intravenous LD10", "setting": "[2]; male mice", "value": 140, "unit": "mg/kg"},
      {"measurement": "intravenous LD50", "setting": "[2]; male mice", "value": 247, "unit": "mg/kg"},
      {"measurement": "intravenous LD10", "setting": "[2]; mice, combined sexes", "value": 133, "unit": "mg/kg"},
      {"measurement": "intravenous LD50", "setting": "[2]; mice, combined sexes", "value": 220, "unit": "mg/kg"},
      {"measurement": "LD10, intravenous three day dose schedule", "setting": "[2]; mouse, × 3 days", "value": 133, "unit": "mg/kg/day"}
    ]}
  ]
}
